Assay results taken from patent US11466016B2, “Pharmaceutical compounds” (priority 2018, dated 2022).
Where a name gives a salt, the structure may show the parent alone. Read-outs that look alike come from different tables or passages of the source.

Molecular target: SHP2 (Homo sapiens (Human), UniProt Q06124)
Assay: SHP2 Biochemical Assay (DiFMUP conversion, pIRS1 activating peptide)
[1] = DiFMUP substrate, 0.25 μM pIRS1 peptide, 30 min pre-incubation, average where more than one data point, read-out: SHP2 (IC50)

SHP2, sequence (Q06124 whole entry): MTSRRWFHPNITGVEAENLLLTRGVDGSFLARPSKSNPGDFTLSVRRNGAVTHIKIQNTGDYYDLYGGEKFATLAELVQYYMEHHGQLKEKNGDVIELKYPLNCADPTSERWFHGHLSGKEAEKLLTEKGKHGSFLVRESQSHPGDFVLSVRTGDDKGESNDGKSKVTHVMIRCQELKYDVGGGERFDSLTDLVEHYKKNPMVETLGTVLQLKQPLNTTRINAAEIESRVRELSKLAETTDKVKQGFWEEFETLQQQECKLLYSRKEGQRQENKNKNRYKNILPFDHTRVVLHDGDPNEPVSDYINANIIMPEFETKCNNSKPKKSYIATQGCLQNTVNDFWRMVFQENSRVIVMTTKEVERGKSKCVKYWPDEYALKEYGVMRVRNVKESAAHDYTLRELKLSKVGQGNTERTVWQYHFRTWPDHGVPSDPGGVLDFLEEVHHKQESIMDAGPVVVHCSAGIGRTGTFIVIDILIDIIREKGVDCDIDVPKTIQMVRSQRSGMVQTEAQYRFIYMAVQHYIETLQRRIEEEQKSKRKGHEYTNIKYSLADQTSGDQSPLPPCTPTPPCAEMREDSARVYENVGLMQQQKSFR

SMILES	IC50 [1]	also measured
Cn1nc2ccc(-c3n[nH]c4nc(N5[C@@H]6CC[C@H]5C[C@@H](N)C6)c(CO)nc34)c(Cl)c2c1Cl [Example 88, {6-[endo-3-amino-8-azabicyclo[3.2.1]octan-8-yl]-3-(3,4-dichloro-2-methyl-2H-indazol-5-yl)-1H-pyrazolo[3,4-b]pyrazin-5-yl}methanol]	7.1 nM	–
Cc1nc2c(-c3ccc4nn(C)cc4c3Cl)n[nH]c2nc1N1C2CCCC1CNC2 [Example 91, 4-Chloro-5-(6-{3,9-diazabicyclo[3.3.1]nonan-9-yl}-5-methyl-1H-pyrazolo[3,4-b]pyrazin-3-yl)-2-methyl-2H-indazole, hydrochloride salt]	22 nM	–
CCn1cc2c(Cl)c(-c3n[nH]c4nc(N5[C@H]6CC[C@@H]5[C@@H](F)[C@@H](N)C6)c(C)nc34)ccc2n1 [Example 92, (1R,2S,3S,5S)-8-[3-(4-Chloro-2-ethyl-2H-indazol-5-yl)-5-methyl-1H-pyrazolo[3,4-b]pyrazin-6-yl]-2-fluoro-8-azabicyclo[3.2.1]octan-3-amine]	8.3 nM	–
Cc1nc2c(-c3ccc4nn(C)c(Cl)c4c3Cl)n[nH]c2nc1N1[C@H]2CC[C@@H]1[C@@H](F)[C@@H](N)C2 [Example 93, (1R,2S,3S,5S)-8-[3-(3,4-Dichloro-2-methyl-2H-indazol-5-yl)-5-methyl-1H-pyrazolo[3,4-b]pyrazin-6-yl]-2-fluoro-8-azabicyclo[3.2.1]octan-3-amine]	3.6 nM	–
Cc1nc2c(-c3ccc4nn(C)cc4c3Cl)n[nH]c2nc1N1CCC2(CC1)CNC2 [Example 94, 7-[3-(4-Chloro-2-methyl-2H-indazol-5-yl)-5-methyl-1H-pyrazolo[3,4-b]pyrazin-6-yl]-2,7-diazaspiro[3.5]nonane]	70 nM	–
COc1cnc2ccc(-c3n[nH]c4nc(N5[C@H]6CC[C@@H]5[C@@H](F)[C@@H](N)C6)c(C)nc34)c(Cl)c2n1 [Example 95, (1R,2S,3S,5S)-8-[3-(5-chloro-3-methoxyquinoxalin-6-yl)-5-methyl-1H-pyrazolo[3,4-b]pyrazin-6-yl]-2-fluoro-8-azabicyclo[3.2.1]octan-3-amine]	3 nM	–
Cc1nc2c(-c3ccc4ncc(N(C)C)nc4c3Cl)n[nH]c2nc1N1[C@H]2CC[C@@H]1[C@@H](F)[C@@H](N)C2 [Example 96, 7-{6-[(1R,2S,3S,5S)-3-amino-2-fluoro-8-azabicyclo[3.2.1]octan-8-yl]-5-methyl-1H-pyrazolo[3,4-b]pyrazin-3-yl}-8-chloro-N,N-dimethylquinoxalin-2-amine]	4.7 nM	–
Cc1nc2ccc(-c3n[nH]c4nc(N5[C@H]6CC[C@@H]5[C@@H](F)[C@@H](N)C6)c(CO)nc34)c(Cl)c2s1 [Example 98, {6-[(1R,2S,3S,5S)-3-amino-2-fluoro-8-azabicyclo[3.2.1]octan-8-yl]-3-(7-chloro-2-methyl-1,3-benzothiazol-6-yl)-1H-pyrazolo[3,4-b]pyrazin-5-yl}methanol]	–	IC50: 4 nM
Cc1c2c(Cl)c(-c3n[nH]c4nc(N5[C@H]6CC[C@@H]5[C@@H](F)[C@@H](N)C6)c(CO)nc34)ccc2nn1C [Example 99, {6-[(1R,2S,3S,5S)-3-amino-2-fluoro-8-azabicyclo[3.2.1]octan-8-yl]-3-(4-chloro-2,3-dimethyl-2H-indazol-5-yl)-1H-pyrazolo[3,4-b]pyrazin-5-yl}methanol]	–	SHP2 (percent at stated concentration) (at 0.010 uM): 45%@0.010 uM
COc1cc2c(Cl)c(-c3n[nH]c4nc(N5[C@H]6CC[C@@H]5[C@@H](F)[C@@H](N)C6)c(CO)nc34)ccc2nc1C [Example 100, {6-[(1R,2S,3S,5S)-3-amino-2-fluoro-8-azabicyclo[3.2.1]octan-8-yl]-3-(5-chloro-3-methoxy-2-methylquinolin-6-yl)-1H-pyrazolo[3,4-b]pyrazin-5-yl}methanol]	12 nM	–
CC(C)n1cc2c(Cl)c(-c3n[nH]c4nc(N5[C@H]6CC[C@@H]5[C@@H](F)[C@@H](N)C6)c(CO)nc34)ccc2n1 [Example 101, {6-[(1R,2S,3S,5S)-3-amino-2-fluoro-8-azabicyclo[3.2.1]octan-8-yl]-3-[4-chloro-2-(propan-2-yl)-2H-indazol-5-yl]-1H-pyrazolo[3,4-b]pyrazin-5-yl}methanol]	21 nM	–
Cn1nc2ccc(-c3n[nH]c4nc(N5[C@@H]6CC[C@H]5[C@H](F)[C@@H](N)C6)c(CO)nc34)c(Cl)c2c1Cl [Example 102, {6-[(1S,2R,3S,5R)-3-amino-2-fluoro-8-azabicyclo[3.2.1]octan-8-yl]-3-(3,4-dichloro-2-methyl-2H-indazol-5-yl)-1H-pyrazolo[3,4-b]pyrazin-5-yl}methanol]	15 nM	–
CCn1nc2ccc(-c3n[nH]c4nc(N5[C@H]6CC[C@@H]5[C@@H](F)[C@@H](N)C6)c(CO)nc34)c(Cl)c2c1Cl [Example 103, {6-[(1R,2S,3S,5S)-3-amino-2-fluoro-8-azabicyclo[3.2.1]octan-8-yl]-3-(3,4-dichloro-2-ethyl-2H-indazol-5-yl)-1H-pyrazolo[3,4-b]pyrazin-5-yl}methanol]	8.9 nM	–
Cn1nc2ccc(-c3c[nH]c4nc(N5[C@H]6CC[C@@H]5[C@@H](F)[C@@H](N)C6)cnc34)c(Cl)c2c1Cl [Example 104, (1R,2S,3S,5S)-8-[7-(3,4-dichloro-2-methyl-2H-indazol-5-yl)-5H-pyrrolo[2,3-b]pyrazin-3-yl]-2-fluoro-8-azabicyclo[3.2.1]octan-3-amine, hydrochloride]	–	IC50: 9.5 nM
Cn1nc2ccc(-c3n[nH]c4nc(N5[C@H]6CC[C@@H]5[C@@H](F)[C@@H](N)C6)c(CO)nc34)c(F)c2c1Br [Example 105, {6-[(1R,2S,3S,5S)-3-amino-2-fluoro-8-azabicyclo[3.2.1]octan-8-yl]-3-(3-bromo-4-fluoro-2-methyl-2H-indazol-5-yl)-1H-pyrazolo[3,4-b]pyrazin-5-yl}methanol]	8.9 nM	–
COc1cnc2ccc(-c3c[nH]c4nc(N5[C@H]6CC[C@@H]5[C@@H](F)[C@@H](N)C6)cnc34)c(Cl)c2n1 [Example 106, (1R,2S,3S,5S)-8-[7-(5-chloro-3-methoxyquinoxalin-6-yl)-5H-pyrrolo[2,3-b]pyrazin-3-yl]-2-fluoro-8-azabicyclo[3.2.1]octan-3-amine, hydrochloride]	–	IC50: 22 nM
COc1cnc2ccc(-c3c[nH]c4nc(N5[C@@H]6CC[C@H]5C[C@@H](N)C6)cnc34)c(Cl)c2n1 [Example 107, endo-8-[7-(5-chloro-3-methoxyquinoxalin-6-yl)-5H-pyrrolo[2,3-b]pyrazin-3-yl]-8-azabicyclo[3.2.1]octan-3-amine, hydrochloride]	22 nM	–
Cc1c(-c2n[nH]c3nc(N4[C@H]5CC[C@@H]4[C@@H](F)[C@@H](N)C5)c(CO)nc23)ccc2nn(C)c(Cl)c12 [Example 108, {6-[(1R,2S,3S,5S)-3-amino-2-fluoro-8-azabicyclo[3.2.1]octan-8-yl]-3-(3-chloro-2,4-dimethyl-2H-indazol-5-yl)-1H-pyrazolo[3,4-b]pyrazin-5-yl}methanol]	6.6 nM	–
COc1cnc2ccc(-c3n[nH]c4nc(N5[C@@H]6CC[C@H]5[C@@H](F)[C@@H](N)C6)c(CO)nc34)c(Cl)c2n1 [Example 109, {6-[(1S,2S,3S,5R)-3-amino-2-fluoro-8-azabicyclo[3.2.1]octan-8-yl]-3-(5-chloro-3-methoxyquinoxalin-6-yl)-1H-pyrazolo[3,4-b]pyrazin-5-yl}methanol]	11 nM	–
Cn1nc2ccc(-c3n[nH]c4nc(N5CCC(C)(N)CC5)c(CO)nc34)c(Cl)c2c1Cl [Example 110, [6-(4-amino-4-methylpiperidin-1-yl)-3-(3,4-dichloro-2-methyl-2H-indazol-5-yl)-1H-pyrazolo[3,4-b]pyrazin-5-yl]methanol]	7 nM	–
COc1cnc2ccc(-c3n[nH]c4nc(N5[C@@H]6CC[C@H]5CNC6)c(CO)nc34)c(Cl)c2n1 [Example 112, [3-(5-Chloro-3-methoxyquinoxalin-6-yl)-6-{3,8-diazabicyclo[3.2.1]octan-8-yl}-1H-pyrazolo[3,4-b]pyrazin-5-yl]methanol]	12 nM	–
COc1cnc2ccc(-c3n[nH]c4nc(N5[C@@H]6CC[C@H]5C[C@@H](N)C6)c(CO)nc34)c(Cl)c2n1 [Example 113, {6-[endo-3-amino-8-azabicyclo[3.2.1]octan-8-yl]-3-(5-chloro-3-methoxyquinoxalin-6-yl)-1H-pyrazolo[3,4-b]pyrazin-5-yl}methanol]	7.4 nM	–
N[C@H]1C[C@@H]2CC[C@H]([C@H]1F)N2c1nc2[nH]nc(-c3ccc4ncsc4c3Cl)c2nc1CO [Example 114, {6-[(1R,2S,3S,5S)-3-amino-2-fluoro-8-azabicyclo[3.2.1]octan-8-yl]-3-(7-chloro-1,3-benzothiazol-6-yl)-1H-pyrazolo[3,4-b]pyrazin-5-yl}methanol]	3 nM	–
Cn1nc2ccc(-c3n[nH]c4nc(N5[C@@H]6CC[C@H]5C[C@@H](O)C6)c(CO)nc34)c(Cl)c2c1Cl [Example 115, endo-8-[3-(3,4-dichloro-2-methyl-2H-indazol-5-yl)-5-(hydroxymethyl)-1H-pyrazolo[3,4-b]pyrazin-6-yl]-8-azabicyclo[3.2.1]octan-3-ol]	–	SHP2 (percent at stated concentration): 50%@0.30 uM
Cn1nc2ccc(-c3n[nH]c4nc(N5[C@@H]6CC[C@H]5C[C@@](C)(N)C6)c(CO)nc34)c(Cl)c2c1Cl [Example 116, {6-[endo-3-amino-3-methyl-8-azabicyclo[3.2.1]octan-8-yl]-3-(3,4-dichloro-2-methyl-2H-indazol-5-yl)-1H-pyrazolo[3,4-b]pyrazin-5-yl}methanol]	7.5 nM	–
CN(C)c1cnc2ccc(-c3n[nH]c4nc(N5[C@H]6CC[C@@H]5[C@@H](F)[C@@H](N)C6)c(CO)nc34)c(Cl)c2n1 [Example 118, {6-[(1R,2S,3S,5S)-3-amino-2-fluoro-8-azabicyclo[3.2.1]octan-8-yl]-3-[5-chloro-3-(dimethylamino)quinoxalin-6-yl]-1H-pyrazolo[3,4-b]pyrazin-5-yl}methanol]	5.3 nM	–
COc1cnc2ccc(-c3n[nH]c4nc(N5[C@@H]6CC[C@H]5CNC6)c(C)nc34)c(Cl)c2n1 [Example 119, 8-Chloro-7-(6-{3,8-diazabicyclo[3.2.1]octan-8-yl}-5-methyl-1H-pyrazolo[3,4-b]pyrazin-3-yl)-2-methoxyquinoxaline]	14 nM	–
